Assay results published in PMC10961402, “Safety, tolerability, pharmacokinetics and pharmacokinetic-pharmacodynamic modeling of cetagliptin in patients with type 2 diabetes mellitus” (Frontiers in Endocrinology, 2024).

How the values were obtained:
[1] = test system: glucose, insulin, C-peptide, and glucagon; assay: Oral glucose tolerance test (OGTT): glucose, insulin, C-peptide, glucagon; assay type: in vivo, human; set-up: change of AUEC0-3 h relative to baseline for insulin (OGTT) / change of AUEC0-3 h relative to baseline for C-peptide (OGTT) / change of AUEC0-3 h relative to baseline for glucagon (OGTT) / C-peptide AUEC0-t (OGTT) / glucagon AUEC0-t (OGTT) / insulin AUEC0-t (OGTT): unit not given here; conditions: patients with T2DM; for change of AUEC0-3 h relative to baseline for C-peptide (OGTT) / change of AUEC0-3 h relative to baseline for glucagon (OGTT) / change of AUEC0-3 h relative to baseline for insulin (OGTT) / change of AUEC0-3 h relative to baseline for plasma glucose (OGTT): day 15 vs day -1
Method: To assess the impact of investigational products on glucose, insulin, C-peptide, and glucagon, OGTT tests were conducted on day -1 and day 15 following a fasting period of more than 8 hours. Subjects received a 75 g oral glucose dose and blood samples (1.5 mL for glucose, 3.5 mL for insulin and C-peptide, 2 mL for glucagon) were collected at 0, 0.167, 0.5, 1, 1.5, 2, and 3 h after ingestion of glucose. The PD parameters (AUEC0-t) for glucose, insulin, C-peptide, and glucagon were calculated by using drug effect module of non-compartmental method with Phoenix WinNonlin.

[2] = in vivo
Description: A population PK/PD (PopPK/PD) model was developed to describe the relationship between cetagliptin and DPP-4 inhibition. A sequential two-step analysis approach to modeling building was implemented. First, a population PK model was developed, and then parameters were fixed to establish the PopPK/PD model. The nonlinear mixed effect modeling method was used to establish the PopPK/PD model. Model selection criteria were based on goodness-of-fit plots, objective function value (OFV, equal to −2 log-likelihood), Akaike information criteria (AIC), and precision of parameter estimates.
A total of 560 plasma concentrations of cetagliptin from 32 patients with T2DM were used for PopPK analysis. The structural model was tested using either one- or two-compartment PK models. […]
The additive error model (Equation 2), proportional error model (Equation 3), and additive and proportional error model (Equation 4) were evaluated to describe the residual variability: […]
Goodness-of-fit plots were assessed to describe the adequacy of the final PopPK/PD model, including observations vs. population predictions, observations vs. individual predictions, conditional weighted residuals (CWRES) vs. population predictions, and CWRES vs. time., A bootstrap resampling procedure was performed to assess the stability of the final PopPK/PD model. […]

[3] = Plasma pharmacokinetics after single and multiple oral doses (non-compartmental analysis); assay type: in vivo, human; conditions: patients with T2DM; for Tmax,ss / Tmax: median (range)
Method: This was a single-center, randomized, double-blind, placebo and positive-controlled, single and multiple oral-dose study. A total of 32 Chinese adults diagnosed with T2DM were recruited for this study and allocated into two dosage groups: 50 mg and 100 mg, each consisting of 16 participants. […] The positive control was designed as open label. […] Subjects underwent medication randomization on day -1, and were assigned the corresponding investigational products. They were orally administered to the drug once every morning on fasting condition for 14 consecutive days. […] After finished the dosing, another OGTT was performed on day 15. Blood samples were collected at designated time points for the analysis of PK/PD and exploratory indicators. Subjects were discharged after completion of the safety assessments on day 19. […] PK parameters were calculated using non-compartmental analysis with Phoenix WinNonlin (version 8.1, Certara, Co., Princeton, NJ, United States). Peak plasma concentration after administration (Cmax) and time to reach Cmax (Tmax) were obtained directly from the observed data, elimination half-life (t1/2) was calculated as ln2/λz using the best fit mode, where λz was the terminal elimination rate constant. Area under the plasma concentration-time curve from zero to the last measurable concentration (AUC0-t) was estimated using the linear trapezoidal method and AUC from zero to infinity (AUC0-∞) was calculated as AUC0-t+Ct/λz, where Ct was the last measured concentration. […] Apparent total plasma clearance after non-intravenous (CL/F) and apparent volume of distribution in terminal phase after non-intravenous (Vz/F) were calculated as Dose/AUC0-∞ and CL/λz, respectively.

[4] = 50 mg group, day -1 (baseline before dosing)
[5] = 100 mg group, day -1 (baseline before dosing)
[6] = day 15 after 50 mg once daily for 14 days
[7] = day 15 after 100 mg once daily for 14 days
[8] = 50 mg oral once daily, listed as cetagliptin
[9] = 100 mg oral once daily, listed as cetagliptin

C[C@@H]1c2cnc(C(F)(F)F)n2CCN1C(=O)C[C@H](N)Cc1cc(F)c(F)cc1F.O=P(O)(O)O [Cetagliptin, cetagliptin]
C-peptide AUEC0-t (OGTT) [1, 4]: 4072.02 ± 1174.82
glucagon AUEC0-t (OGTT) [1, 4]: 469.51 ± 189.76
glucose AUEC0-t (OGTT) [1, 4]: 48.65 ± 5.34 mmol·h/L
insulin AUEC0-t (OGTT) [1, 4]: 431.53 ± 271.81
change of AUEC0-3 h relative to baseline for C-peptide (OGTT) ([1]; 50 mg once daily): 1851.30
change of AUEC0-3 h relative to baseline for glucagon (OGTT) ([1]; 50 mg once daily): -72.70
change of AUEC0-3 h relative to baseline for insulin (OGTT) ([1]; 50 mg once daily): 219.90
change of AUEC0-3 h relative to baseline for plasma glucose (OGTT) ([1]; 50 mg once daily): -4.97 mmol·h/L
C-peptide AUEC0-t (OGTT) [1, 5]: 6059.64 ± 1263.61
glucagon AUEC0-t (OGTT) [1, 5]: 503.79 ± 161.61
glucose AUEC0-t (OGTT) [1, 5]: 40.59 ± 2.87 mmol·h/L
insulin AUEC0-t (OGTT) [1, 5]: 716.44 ± 250.84
change of AUEC0-3 h relative to baseline for C-peptide (OGTT) ([1]; 100 mg once daily): 1761.48
change of AUEC0-3 h relative to baseline for glucagon (OGTT) ([1]; 100 mg once daily): -7.21
change of AUEC0-3 h relative to baseline for insulin (OGTT) ([1]; 100 mg once daily): 292.18
change of AUEC0-3 h relative to baseline for plasma glucose (OGTT) ([1]; 100 mg once daily): -2.76 mmol·h/L
C-peptide AUEC0-t (OGTT) [1, 6]: 5923.31 ± 2012.97
glucagon AUEC0-t (OGTT) [1, 6]: 396.81 ± 51.89
glucose AUEC0-t (OGTT) [1, 6]: 43.68 ± 8.04 mmol·h/L
insulin AUEC0-t (OGTT) [1, 6]: 651.43 ± 455.05
C-peptide AUEC0-t (OGTT) [1, 7]: 7821.13 ± 2023.09
glucagon AUEC0-t (OGTT) [1, 7]: 496.58 ± 158.93
glucose AUEC0-t (OGTT) [1, 7]: 37.83 ± 5.09 mmol·h/L
insulin AUEC0-t (OGTT) [1, 7]: 1008.62 ± 367.20
tvCl2 (typical value of intercompartment clearance) [2]: 9.671 L/h
tvV (typical value of volume of central compartment distribution) [2]: 8.668 L
RAUC (accumulation ratio of AUC0-24h, day 14/day 1) ([3]; 50 mg oral once daily): 2.13 ± 0.225
RCmax (accumulation ratio of Cmax, day 14/day 1) ([3]; 50 mg oral once daily): 2.01 ± 0.417
AUC0-24h ([3]; 50 mg oral once daily, day 14): 1530 ± 274 ng·h/mL
AUC0-∞ ([3]; 50 mg oral once daily, day 14): 2710 ± 577 ng·h/mL
AUC(0-t) ([3]; 50 mg oral once daily, day 14): 2510 ± 512 ng·h/mL
CLss/F ([3]; 50 mg oral once daily, day 14): 33.6 ± 5.86 L/h
Cavg ([3]; 50 mg oral once daily, day 14): 63.9 ± 11.4 ng/mL
Cmax,ss ([3]; 50 mg oral once daily, day 14): 162 ± 58.1 ng/mL
Vz,ss/F ([3]; 50 mg oral once daily, day 14): 2010 ± 610 L
t1/2 ([3]; 50 mg oral once daily, day 14): 41.9 ± 11.0 h
CLss/F ([3]; 50 mg oral once daily, day 14, listed as cetagliptin): 33.6 L/h
Tmax,ss ([3]; 50 mg oral once daily, day 14): 1.00 (0.500-5.00) h
RAUC (accumulation ratio of AUC0-24h, day 14/day 1) [3, 8]: 2.13
RCmax (accumulation ratio of Cmax, day 14/day 1) [3, 8]: 2.01
AUC0-24h ([3]; 50 mg oral, day 1): 717 ± 86.0 ng·h/mL
Cmax ([3]; 50 mg oral, day 1): 80.5 ± 23.3 ng/mL
Tmax ([3]; 50 mg oral, day 1): 2.00 (1.00-4.00) h
RAUC (accumulation ratio of AUC0-24h, day 14/day 1) ([3]; 100 mg oral once daily): 1.75 ± 0.305
RCmax (accumulation ratio of Cmax, day 14/day 1) ([3]; 100 mg oral once daily): 1.49 ± 0.542
AUC0-24h ([3]; 100 mg oral once daily, day 14): 3120 ± 263 ng·h/mL
AUC0-∞ ([3]; 100 mg oral once daily, day 14): 4780 ± 361 ng·h/mL
AUC(0-t) ([3]; 100 mg oral once daily, day 14): 4580 ± 356 ng·h/mL
CLss/F ([3]; 100 mg oral once daily, day 14): 32.2 ± 2.57 L/h
Cavg ([3]; 100 mg oral once daily, day 14): 130 ± 11.0 ng/mL
Cmax,ss ([3]; 100 mg oral once daily, day 14): 300 ± 46.9 ng/mL
Vz,ss/F ([3]; 100 mg oral once daily, day 14): 1640 ± 628 L
t1/2 ([3]; 100 mg oral once daily, day 14): 34.9 ± 12.3 h
CLss/F ([3]; 100 mg oral once daily, day 14, listed as cetagliptin): 32.2 L/h
Tmax,ss ([3]; 100 mg oral once daily, day 14): 1.00 (0.500-3.00) h
RAUC (accumulation ratio of AUC0-24h, day 14/day 1) [3, 9]: 1.75
RCmax (accumulation ratio of Cmax, day 14/day 1) [3, 9]: 1.49
AUC0-24h ([3]; 100 mg oral, day 1): 1830 ± 347 ng·h/mL
Cmax ([3]; 100 mg oral, day 1): 219 ± 72.3 ng/mL
Tmax ([3]; 100 mg oral, day 1): 1.00 (1.00-3.00) h
mean t1/2 (half-life) ([3]; multiple oral doses, range over 50 mg and 100 mg groups): 34.9 to 41.9 h
time of daily dosing after which steady-state conditions were reached ([3]; once daily dosing, trough concentrations days 7, 10, 14): 1 week
